In patent US20240294531A1, “COVALENT HETEROCYCLES AND USES THEREOF” (Kumquat Biosciences Inc., priority 2022, published 2024):
One block for each compound: values may come before it.

How the values were obtained:
BTK wildtype protein = BTK wildtype protein (Homo sapiens (Human), UniProt Q06187); assay: BTK wildtype HTRF displacement assay; type: binding; conditions: 1-hour incubation; read-out: BTK (wt) IC50
Experimental: (§1) The ability of a compound to bind BTK wildtype or BTK C481S proteins was measured using an HTRF displacement assay. The assay measures the ability of a compound to displace a tracer ligand bound to the active site of BTK wildtype or BTK C481 S proteins.
(§2) Test compounds were prepared as 10 mM stock solutions in DMSO (Fisher cat #BP231-100). Compounds to be assayed were dispensed using an Echo 650 acoustic dispenser (Beckman Coulter) on a 384 well plate in 6 doses applying four-fold dilutions from the highest concentration of 5 μM. N-terminal GST-tagged recombinant full-length BTK wildtype protein and BTK C481 S protein 2-659 were purchased from Carna Biosciences, Inc (Kobe, Japan). BTK wildtype or BTK C481S protein was separately incubated with compound in assay buffer containing kinase tracer 239 (Thermo Fisher) and Mab anti GST-Th (PerkinElmer). After a 1-hour incubation at room temperature, the HTRF signal was measured using SPARK plate reader (Tecan) using the TR fluorescence mode. The HTRF ratio is calculated for DMSO, no protein control and compound samples using the following equation: HTRF ratio=Emmision665/Emmision620×10^4. The signal for the no protein control samples was used to subtract background noise from the DMSO and compound samples. Background subtracted HTRF ratios are used to calculate the percent inhibition, where DMSO controls are set to 0 percent inhibition. The percent inhibition is plotted as a function of compound concentration and IC50 values were calculated from a four-parameter logistic fit in Prism v9.4 (GraphPad), where the bottom and top are constrained to 0 and 100, respectively.

BTK C481S protein = BTK C481S protein (Homo sapiens (Human), UniProt Q06187, C481S); assay: BTK C481S HTRF displacement assay; type: binding; conditions: 1-hour incubation
Chain of BTK C481S protein (Q06187 2-659 C481S): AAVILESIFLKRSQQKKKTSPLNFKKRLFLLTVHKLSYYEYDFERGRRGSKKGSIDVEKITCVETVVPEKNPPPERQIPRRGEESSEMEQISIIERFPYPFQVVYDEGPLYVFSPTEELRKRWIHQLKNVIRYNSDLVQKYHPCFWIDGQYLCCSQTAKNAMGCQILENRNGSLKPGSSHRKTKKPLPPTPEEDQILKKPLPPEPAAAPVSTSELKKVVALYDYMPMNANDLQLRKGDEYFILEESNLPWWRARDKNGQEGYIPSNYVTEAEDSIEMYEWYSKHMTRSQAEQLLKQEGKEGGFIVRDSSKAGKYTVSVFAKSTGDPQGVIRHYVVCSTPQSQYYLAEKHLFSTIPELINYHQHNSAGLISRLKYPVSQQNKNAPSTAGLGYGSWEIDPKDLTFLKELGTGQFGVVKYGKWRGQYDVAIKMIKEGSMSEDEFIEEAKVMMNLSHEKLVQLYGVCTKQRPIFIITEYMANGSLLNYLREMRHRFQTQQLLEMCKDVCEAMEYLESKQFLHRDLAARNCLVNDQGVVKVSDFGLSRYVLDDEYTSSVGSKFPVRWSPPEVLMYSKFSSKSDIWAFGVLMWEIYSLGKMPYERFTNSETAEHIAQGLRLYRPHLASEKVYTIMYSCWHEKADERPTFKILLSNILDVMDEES
Experimental: as §1, §2
The same assay was used to measure the activity of selected compounds of the formula TBM-L-hydrogen. Using the IC50 value observed for a given reversible test compound, the KI of the test compound can be assessed using the formula KI=IC50/(1+([Tracer]/Kd)), wherein the tracer concentration in the assay [Tracer] is 50 nM and the tracer Kd for BTK C481S is 54 nM.

Chain of BTK wildtype protein (Q06187 2-659): as the sequence (Q06187 2-659 C481S) above, with S480C counted along it

SMILES: COc1ccc(F)cc1C(=O)NCc1ccc(-c2nn(C(CC3CC3)CN(C)C(=O)n3cncn3)c3ncnc(N)c23)cc1 (centres unmarked) [Compound 127, N-(4-(4-amino-3-(4-((5-fluoro-2-methoxybenzamido)methyl)phenyl)-1H-pyrazolo[3,4-d]pyrimidin-1-yl)-3-cyclopropylpropyl)-N-methyl-1H-1,2,4-triazole-1-carboxamide]
- IC50 (BTK wildtype protein): > 1000 nM
- IC50 (BTK C481S protein): > 1000 nM

SMILES: NC(=O)c1c(-c2ccc(Oc3ccccc3)cc2)nn(C2CCCN(C(=O)n3cncn3)C2)c1N (centres unmarked) [Compound 163, 1-(1-(1H-1,2,4-triazole-1-carbonyl)piperidin-3-yl)-5-amino-3-(4-phenoxyphenyl)-1H-pyrazole-4-carboxamide]
- IC50 (BTK wildtype protein): ≤ 1000 nM
- IC50 (BTK C481S protein): ≤ 1000 nM

SMILES: Nc1ncnc2c1c(-c1ccc(Oc3ccccc3)cc1)nn2CC1CCCCN1C(=O)n1cncn1 (centres unmarked) [Compound 267, (2-((4-amino-3-(4-phenoxyphenyl)-1H-pyrazolo[3,4-d]pyrimidin-1-yl)methyl)piperidin-1-yl)(1H-1,2,4-triazol-1-yl)methanone]
- IC50 (BTK wildtype protein): ≤ 1000 nM
- IC50 (BTK C481S protein): ≤ 1000 nM

SMILES: COc1ccc(F)cc1C(=O)NCc1ccc(-c2nn(C(CC3CCCCC3)CN(C)C(=O)n3cncn3)c3ncnc(N)c23)cc1 (centres unmarked) [Compound 202, N-(2-(4-amino-3-(4-((5-fluoro-2-methoxybenzamido)methyl)phenyl)-1H-pyrazolo[3,4-d]pyrimidin-1-yl)-3-cyclohexylpropyl)-N-methyl-1H-1,2,4-triazole-1-carboxamide]
- IC50 (BTK wildtype protein): > 1000 nM
- IC50 (BTK C481S protein): > 1000 nM

SMILES: COc1ccc(F)cc1C(=O)NCc1ccc(-c2nn(C[C@@H]3CC[C@H]3N(C)C(=O)n3cncn3)c(N)c2C(N)=O)cc1 [Compound 121, N-((1R,2S)-2-((5-amino-4-carbamoyl-3-(4-((5-fluoro-2-methoxybenzamido)methyl)phenyl)-1H-pyrazol-1-yl)methyl)cyclobutyl)-N-methyl-1H-1,2,4-triazole-1-carboxamide]
- IC50 (BTK wildtype protein): ≤ 1000 nM
- IC50 (BTK C481S protein): ≤ 1000 nM

SMILES: CC(C)[C@@H](C1CCNc2c(C(N)=O)c(-c3ccc(Oc4ccccc4)cc3)nn21)N(C)C(=O)n1cncn1 (stereo partly drawn) [Compound 301, 7-((S)-2-methyl-1-(N-methyl-1H-1,2,4-triazole-1-carboxamido)propyl)-2-(4-phenoxyphenyl)-4,5,6,7-tetrahydropyrazolo [1,5-a]pyrimidine-3-carboxamide]
- IC50 (BTK wildtype protein): > 1000 nM
- IC50 (BTK C481S protein): > 1000 nM

SMILES: CN(C(=O)n1cncn1)[C@H]1CCCC[C@H](n2nc(-c3ccc(Oc4ccccc4)cc3)c(C(N)=O)c2N)C1 [Compound 252, N-((1S,3S)-3-(5-amino-4-carbamoyl-3-(4-phenoxyphenyl)-1H-pyrazol-1-yl)cycloheptyl)-N-methyl-1H-1,2,4-triazole-1-carboxamide]
- IC50 (BTK wildtype protein): ≤ 1000 nM
- IC50 (BTK C481S protein): ≤ 1000 nM

SMILES: NC(=O)c1c(-c2ccc(Oc3ccccc3)cc2)nn2c1NCCC2C1CN(C(=O)n2cncn2)C1 (centres unmarked) [Compound 220, 7-(1-(1H-1,2,4-triazole-1-carbonyl)azetidin-3-yl)-2-(4-phenoxyphenyl)-4,5,6,7-tetrahydropyrazolo[1,5-a] pyrimidine-3-carboxamide]
- IC50 (BTK wildtype protein): ≤ 1000 nM
- IC50 (BTK C481S protein): ≤ 1000 nM

SMILES: NC(=O)c1c(-c2ccc(Oc3ccccc3)cc2)nn2c1NCC1CN(C(=O)n3cncn3)CCC12 (centres unmarked) [Compound 306, 2-(4-phenoxyphenyl)-7-(1H-1,2,4-triazole-1-carbonyl)-4,5,5a,6,7,8,9,9a-octahydropyrazolo[1,5-a]pyrido[3,4-e]pyrimidine-3-carboxamide]
- IC50 (BTK wildtype protein): ≤ 1000 nM
- IC50 (BTK C481S protein): ≤ 1000 nM

SMILES: CN(C(=O)n1cnc(Cl)n1)C1CCCC(n2nc(-c3ccc(Oc4ccccc4)cc3)c3c(N)ncnc32)C1 (centres unmarked) [Compound 239, N-(3-(4-amino-3-(4-phenoxyphenyl)-1H-pyrazolo[3,4-d]pyrimidin-1-yl)cyclohexyl)-3-chloro-N-methyl-1H-1,2,4-triazole-1-carboxamide]
- IC50 (BTK wildtype protein): ≤ 1000 nM
- IC50 (BTK C481S protein): ≤ 1000 nM

Next, values leading:

- IC50 (BTK wildtype protein): > 1000 nM
- IC50 (BTK C481S protein): > 1000 nM
SMILES: CN(C(=O)n1cncn1)C1CCC2CNc3c(C(N)=O)c(-c4ccc(Oc5ccccc5)cc4)nn3C2C1 (centres unmarked) [Compound 234, 8-(N-methyl-1H-1,2,4-triazole-1-carboxamido)-2-(4-phenoxyphenyl)-4,5,5a,6,7,8,9,9a-octahydro-pyrazolo[1,5-a]quinazoline-3-carboxamide]

- IC50 (BTK wildtype protein): ≤ 1000 nM
- IC50 (BTK C481S protein): ≤ 1000 nM
SMILES: COc1ccc(F)cc1C(=O)NCc1ccc(-c2nn(C[C@@H]3CCCC[C@H]3CN(C)C(=O)n3cncn3)c3ncnc(N)c23)cc1 [Compound 130, N-(((1R,2R)-2-((4-amino-3-(4-((5-fluoro-2-methoxybenzamido)methyl)phenyl)-1H-pyrazolo [3,4-d]pyrimidin-1-yl)methyl)cyclohexyl)methyl)-N-methyl-1H-1,2,4-triazole-1-carboxamide]

- IC50 (BTK wildtype protein): > 1000 nM
- IC50 (BTK C481S protein): > 1000 nM
SMILES: COCCC(Cn1nc(-c2ccc(CNC(=O)c3cc(F)ccc3OC)cc2)c2c(N)ncnc21)N(C)C(=O)n1cncn1 (centres unmarked) [Compound 214, N-(1-(4-amino-3-(4-((5-fluoro-2-methoxybenzamido)methyl)phenyl)-1H-pyrazolo[3,4-d]pyrimidin-1-yl)-4-methoxy-butan-2-yl)-N-methyl-1H-1,2,4-triazole-1-carboxamide]

- IC50 (BTK wildtype protein): ≤ 1000 nM
- IC50 (BTK C481S protein): ≤ 1000 nM
SMILES: COc1ccc(F)cc1C(=O)NCc1ccc(-c2nn(C[C@@H]3CCCCN3C(=O)n3cncn3)c3ncnc(N)c23)cc1 [Compound 274, (S)-N-(4-(1-((1-(1H-1,2,4-triazole-1-carbonyl)piperidin-2-yl)methyl)-4-amino-1H-pyrazolo[3,4-d]pyrimidin-3-yl)benzyl)-5-fluoro-2-methoxybenzamide]

- IC50 (BTK wildtype protein): ≤ 1000 nM
- IC50 (BTK C481S protein): ≤ 1000 nM
SMILES: CC1CC(n2nc(-c3ccc(Oc4ccccc4)cc3)c3c(N)ncnc32)CCN1C(=O)n1cncn1 (centres unmarked) [Compound 144, (4-(4-amino-3-(4-phenoxyphenyl)-1H-pyrazolo[3,4-d]pyrimidin-1-yl)-2-methylpiperidin-1-yl)(1H-1,2,4-triazol-1-yl)methanone]

- IC50 (BTK wildtype protein): > 1000 nM
- IC50 (BTK C481S protein): ≤ 1000 nM
SMILES: COc1ccc(F)cc1C(=O)NCc1ccc(-c2nn(C[C@@H]3C[C@@H](F)CN3C(=O)n3cncn3)c3ncnc(N)c23)cc1 [Compound 221, N-(4-(4-amino-1-(((2S,4R)-4-fluoro-1-(1H-1,2,4-triazole-1-carbonyl)pyrrolidin-2-yl)methyl)-1H-pyrazolo[3,4-d]pyrimidin-3-yl)benzyl)-5-fluoro-2-methoxybenzamide]

- IC50 (BTK wildtype protein): ≤ 1000 nM
- IC50 (BTK C481S protein): ≤ 1000 nM
SMILES: COc1ccc(F)cc1C(=O)NCc1ccc(-c2nn([C@@H]3CCC[C@@H](N(C)C(=O)n4cncn4)C3)c(N)c2C(N)=O)cc1 (relative stereo) [Compound 194, N-((1R,3R)-3-(5-amino-4-carbamoyl-3-(4-((5-fluoro-2-methoxybenzamido)methyl)phenyl)-1H-pyrazol-1-yl)cyclohexyl)-N-methyl-1H-1,2,4-triazole-1-carboxamide]

- IC50 (BTK wildtype protein): ≤ 1000 nM
- IC50 (BTK C481S protein): > 1000 nM
SMILES: COc1ccc(F)cc1C(=O)NCc1ccc(-c2nn(C3(CN(C)C(=O)n4cnc(C#N)n4)CC3)c3ncnc(N)c23)cc1 [Compound 117, N-((1-(4-amino-3-(4-((5-fluoro-2-methoxybenzamido)methyl)phenyl)-1H-pyrazolo[3,4-d]pyrimidin-1-yl)cyclopropyl)methyl)-3-cyano-N-methyl-1H-1,2,4-triazole-1-carboxamide]

- IC50 (BTK wildtype protein): ≤ 1000 nM
- IC50 (BTK C481S protein): ≤ 1000 nM
SMILES: COc1ccc(F)cc1C(=O)NCc1ccc(-c2nn(CC3CCCCC3N(C)C(=O)n3cncn3)c(N)c2C(N)=O)cc1 (centres unmarked) [Compound 229, N-(2-((5-amino-4-carbamoyl-3-(4-((5-fluoro-2-methoxybenzamido)methyl)phenyl)-1H-pyrazol-1-yl)methyl)cyclohexyl)-N-methyl-1H-1,2,4-triazole-1-carboxamide]

- IC50 (BTK wildtype protein): ≤ 1000 nM
- IC50 (BTK C481S protein): ≤ 1000 nM
SMILES: COc1ccc(F)cc1C(=O)NCc1ccc(-c2nn(C3(CCN(C)C(=O)n4cncn4)CCC3)c3ncnc(N)c23)cc1 [Compound 213, N-(2-(1-(4-amino-3-(4-((5-fluoro-2-methoxybenzamido)methyl)phenyl)-1H-pyrazolo[3,4-d]pyrimidin-1-yl)cyclobutyl)ethyl)-N-methyl-1H-1,2,4-triazole-1-carboxamide]

- IC50 (BTK wildtype protein): ≤ 1000 nM
- IC50 (BTK C481S protein): ≤ 1000 nM
SMILES: CC(CN(C)C(=O)n1cncn1)C1CCNc2c(C(N)=O)c(-c3ccc(Oc4ccccc4)cc3)nn21 (centres unmarked) [Compound 308, 7-(1-(N-methyl-1H-1,2,4-triazole-1-carboxamido)propan-2-yl)-2-(4-phenoxyphenyl)-4,5,6,7-tetrahydropyrazolo[1,5-a] pyrimidine-3-carboxamide]

- IC50 (BTK wildtype protein): > 1000 nM
- IC50 (BTK C481S protein): > 1000 nM
SMILES: CCC(CN(C)C(=O)n1cncn1)n1nc(-c2ccc(CNC(=O)c3cc(F)ccc3OC)cc2)c2c(N)ncnc21 (centres unmarked) [Compound 176, N-(2-(4-amino-3-(4-((5-fluoro-2-methoxybenzamido)methyl)phenyl)-1H-pyrazolo[3,4-d]pyrimidin-1-yl)butyl)-N-methyl-1H-1,2,4-triazole-1-carboxamide]
